Experimental data reported in patent EP0006061A1, “Medicinal compound consisting of a derivative of cyclopentyl aldehyde” (INSTITUT DE RECHERCHES CHIMIQUES ET BIOLOGIQUES APPLIQUEES …, priority 1978, dated 1979).
Values after ≈ are worked out from the molar mass of the structure shown. Read-outs that look alike come from different tables or passages of the source.

Columns and labels:
[1] = test system: duodénum isolé de rat; assay: antispasmodic activity on isolated duodenum against barium chloride; format: cell-based; settings: against BaCl2 (0,3 µg/ml), read-out: DE-50 (the source's name)
Experimental: (§1) L'activité antispasmodique du produit de l'exemple 4 a été étudiée sur le duodénum isolé de rat vis à vis de l'acétvlcholine et du chlorure de baryum. Les DE-50 du produit de l'exemple 4 sont : • (i) 13 µg/ml vis à vis de l'acétycholine (0,2 µg/ml), et • (ii) 10 µg/ml vis à vis de BaCl2 (0,3 µg/ml). g/ toxicité

[2] = test system: duodénum isolé de rat; assay: antispasmodic activity on isolated duodenum against acetylcholine; format: cell-based; settings: against acetylcholine (0,2 µg/ml), read-out: DE-50 (the source's name)
Experimental: as §1

[3] = test system: Klebsiella pneumoniae (souche 433); assay: bacteriostatic activity (MIC); format: cell-based; settings: read-out: CMI
Experimental: (§2) Les essais pharmaceutiques qui ont été mis en oeuvre avec les produits des exemples 1 et 4, ont été résumés ci-après : • 1°/ essais avec l'exemple 1 • a/ activité bactériostatique L' α-(2-formyl-3-méthyl-cyclopentyl)-acétal- déhyde inhibe les bactéries Gram (+) et Gram (-). Les CMI (concentration minimale inhibitrice) sont les suivantes : 0,75 mg/ml sur Staphylococcus aureus Londres, 1,2 mg/ml sur Escherichia coli, et 1,5 mg/ml sur Proteus • b/ activité antispasmodique : Les DE-50 du produit de l'exemple 1 ont été déterminés • (i) in vitro sur iléon isolé de cobaye vis à vis de l'histamine : DE - 50 = 50 γ/ml; • (ii) in vivo sur l'animal vivant selon la méthode de KONZETT & ROESLLER : DE - 50 = 2,6 mg/kg par administration i.v. • c/ activité antianaphylactique : Des cobayes mâles sont sensibilisés par deux injections de 0,5 ml d'une solution d'albumine à 2 g/1, à deux jours d'intervalle. Quatre semaines aprës,le choc anaphylactique mortel est provoqué par injection i.v. de 0,2 ml d'une solution aqueuse d'ovalbumine à 2 g/1. Les produits à tester sont administrés 30 mn avant (administration i.p.) ou en même temps (administration i.v.) que l'injection provoquant ledit choc anaphylactique. Les résultats sont donnés dans le tableau I pour le produit de l'exemple 1 et la Prométhazine en tant que produit de référence : [formula] • 2°/ essais avec le produit de l'exemple 4 (constitué par un mélange de 87 % en poids d'isomère "cis-trans" et 13 % en poids d'isomère "trans-cis). • a/ activité bactériostatigue : Le produit de l'exemple 4 inhibe les bactéries Gram (+) et Gram (-). Ses CMI sont les suivantes : • 1,5 mg/m sur Staphylococcus aureus, Londres • 1 mg/ml sur Escherichia coli (souche 548) • 1,75 mg/ml sur Proteus vulgaris (souche 1557) • 2,5 mg/ml sur Klebsiella pneumoniae (souche 433), • 1 mg/ml sur Salmonella typhi murium (souche IP), • 1,5 mg/ml sur Staphylococcus aureus (souche 634), • 1,25 mg/ml sur Streptococcus (souche 1178) • 1,25 mg/ml sur Bacillus substilis, (les souches 548, 1557, 433, 634, et 1178 étant celles du catalogue de la collection du "Centre International de Distribution de Souches et d'Information sur les Types Microbiens" de . Lausanne, et la souche "IP" provenant de l'Institut Pasteur de Paris. • b/ activité bactéricide Le produit de l'exemple 4 détruit les bactéries Gram (+) et Gram (-). Ses CMB (concentration minimalebactéricide) déterminées sur milieu solide (quand moins de 0,01% de germes survivent) sont : • 1,75 mg/ml sur Staphylococcus aureus Londres • 1,5 mg/ml sur Escherichia coli (souche 548) • 2 mg/ml sur Proteus vulgaris (souche 1557) • 3 mg/ml sur Klebsiella pneumoniae (souche 433), • 1,25 mg/ml sur Salmonella typhi murium (souche I.P.) • 1,75 mg/ml sur Staphylococcus aureus (souche 634) • 2 mg/ml sur Streptococcus (souche 1178) • 2,5 mg/ml sur Bacillus substilis. • c/ activité bronchospatique Des cobayes mâles ou femelles [20 animaux (pesant 300-500 g) par dose et par produit à tester] sont exposés à un aérosol de l'exemple 4 (50 g/l en solution eau-éthanol) ou de Prométhazine (produit de référence) pendant 10 mn.

[4] = test system: Staphylococcus aureus (souche 634); assay: bacteriostatic activity (MIC); format: cell-based; settings: read-out: CMI
Experimental: as §2

[5] = test system: Streptococcus (souche 1178); assay: bacteriostatic activity (MIC); format: cell-based; settings: read-out: CMI
Experimental: as §2

[6] = test system: Proteus vulgaris (souche 1557); assay: bacteriostatic activity (MIC); format: cell-based; settings: read-out: CMI
Experimental: as §2

[7] = test system: Escherichia coli (souche 548); assay: bacteriostatic activity (MIC); format: cell-based; settings: read-out: CMI
Experimental: as §2

[8] = test system: Bacillus substilis; assay: bacteriostatic activity (MIC); format: cell-based; settings: read-out: CMI
Experimental: as §2

[9] = test system: Salmonella typhi murium (souche IP); assay: bacteriostatic activity (MIC); format: cell-based; settings: Salmonella enterica, read-out: CMI
Experimental: as §2

[10] = test system: cobayes; assay: histamine aerosol bronchospasm (time to apnoea); format: in vivo; settings: aerosol for 10 min before histamine aerosol, controls 108 ± 18
Experimental: Les essais pharmaceutiques qui ont été mis en oeuvre avec les produits des exemples 1 et 4, ont été résumés ci-après : • 1°/ essais avec l'exemple 1 • a/ activité bactériostatique L' α-(2-formyl-3-méthyl-cyclopentyl)-acétal- déhyde inhibe les bactéries Gram (+) et Gram (-). Les CMI (concentration minimale inhibitrice) sont les suivantes : 0,75 mg/ml sur Staphylococcus aureus Londres, 1,2 mg/ml sur Escherichia coli, et 1,5 mg/ml sur Proteus • b/ activité antispasmodique : Les DE-50 du produit de l'exemple 1 ont été déterminés • (i) in vitro sur iléon isolé de cobaye vis à vis de l'histamine : DE - 50 = 50 γ/ml; • (ii) in vivo sur l'animal vivant selon la méthode de KONZETT & ROESLLER : DE - 50 = 2,6 mg/kg par administration i.v. • c/ activité antianaphylactique : Des cobayes mâles sont sensibilisés par deux injections de 0,5 ml d'une solution d'albumine à 2 g/1, à deux jours d'intervalle. Quatre semaines aprës,le choc anaphylactique mortel est provoqué par injection i.v. de 0,2 ml d'une solution aqueuse d'ovalbumine à 2 g/1. Les produits à tester sont administrés 30 mn avant (administration i.p.) ou en même temps (administration i.v.) que l'injection provoquant ledit choc anaphylactique. Les résultats sont donnés dans le tableau I pour le produit de l'exemple 1 et la Prométhazine en tant que produit de référence : [formula] • 2°/ essais avec le produit de l'exemple 4 (constitué par un mélange de 87 % en poids d'isomère "cis-trans" et 13 % en poids d'isomère "trans-cis). • a/ activité bactériostatigue : Le produit de l'exemple 4 inhibe les bactéries Gram (+) et Gram (-). […]

[11] = test system: Klebsiella pneumoniae (souche 433); assay: bactericidal activity (MBC) on solid medium; format: cell-based; settings: less than 0,01% of germs survive, read-out: CMB (concentration minimalebactéricide)
Experimental: as §2

[12] = test system: Staphylococcus aureus (souche 634); assay: bactericidal activity (MBC) on solid medium; format: cell-based; settings: less than 0,01% of germs survive, read-out: CMB (concentration minimalebactéricide)
Experimental: as §2

[13] = test system: Streptococcus (souche 1178); assay: bactericidal activity (MBC) on solid medium; format: cell-based; settings: less than 0,01% of germs survive, read-out: CMB (concentration minimalebactéricide)
Experimental: as §2

[14] = test system: Proteus vulgaris (souche 1557); assay: bactericidal activity (MBC) on solid medium; format: cell-based; settings: less than 0,01% of germs survive, read-out: CMB (concentration minimalebactéricide)
Experimental: as §2

[15] = test system: Escherichia coli (souche 548); assay: bactericidal activity (MBC) on solid medium; format: cell-based; settings: less than 0,01% of germs survive, read-out: CMB (concentration minimalebactéricide)
Experimental: as §2

[16] = test system: Bacillus substilis; assay: bactericidal activity (MBC) on solid medium; format: cell-based; settings: less than 0,01% of germs survive, read-out: CMB (concentration minimalebactéricide)
Experimental: as §2

[17] = test system: Staphylococcus aureus Londres; assay: bactericidal activity (MBC) on solid medium; format: cell-based; settings: less than 0,01% of germs survive, read-out: CMB (concentration minimalebactéricide)
Experimental: as §2

[18] = test system: Salmonella typhi murium (souche I.P.); assay: bactericidal activity (MBC) on solid medium; format: cell-based; settings: Salmonella enterica, less than 0,01% of germs survive, read-out: CMB (concentration minimalebactéricide)
Experimental: as §2

[19] = test system: cobayes; assay: antianaphylactic activity: ovalbumin aerosol in sensitised animals (time to dyspnoea); format: in vivo; settings: aerosol pretreatment, controls 94 ± 39
Text: Des cobayes (mâles ou femelles) sont sensibilisés à l'ovalbumine quatre semaines avant le début de l'expérience. Chaque animal est exposé à un aérosol d'ovalbumine (obtenu à partir d'un milieu aqueux contenant 50 g/1 d'ovalbumine). Le choc anaphylactique se manifeste par l'apparition d'une dyspnée intense. Les temps d'apparition de la dyspnée sont comparés entre lot témoin et lots préalablement traités avec un aérosol du produit de l'exemple 4 (50 g/1 dans une solution eau-éthanol). Les résultats donnés dans le tableau IV, montrent que le produit de l'exemple 4 […] le temps d'apparition des troubles respiratoires provoqués par l'aérosol d'ovalbumine .

[20] = acute toxicity (LD50); set-up: species or system souris; settings: in vivo, mouse
Experimental: Les DL-50 du poids de l'exemple 4 chez la souris sont les suivantes : • DL-50 i.p. = 18 ± 3 mg/kg • DL-50 i.v. - 20 ± 3 mg/kg • DL-50 p.o. = 282 ± 3 mg/kg • DL-50 s.c. > 1000 mg/kg • DL-50 aérosol = 22 ± 3 mg/kg

[21] = test system: iléon isolé de cobaye; assay: antianaphylactic activity in vitro: albumin-induced contraction of ileum from sensitised animals; format: cell-based; settings: for amplitude des contractions: 2 min contact, 200 µg albumin, controls 147 ± 32
Experimental: Des cobayes mâles sont sensibilises par une injection i.p. de 100 mg/kg d'ovalbumine dans un volume égal d'adjuvant de Freund. Quatre semaines après, les animaux sont sacrifiés, on recueille chaque iléon qui est placé à 33°C dans un bain de Thyrode. Une contraction est provoquée par addition d'une dose de 200 µg d'albumine au liquide de survie. L'amplitude des contractions des témoins est comparée à l'amplitude des contractions après mise en contact du produit de l'exemple 4 pendant 2 mn. Les résultats donnés dans le tableau III montrent que le produit de l'exemple 4 réduit l'amplitude des contractions de l'iléon isolé de cobaye , cette réduction étant statistiquement significative.

[22] = test system: rat femelle; assay: anti-inflammatory activity, carrageenin oedema test; format: in vivo
Text: L'activité anti-inflammatoire de l'exemple 4 a été étudiée chez le rat femelle (de poids 100 g) selon le test de l'oedème à la carragéenine.Les résultats sont donnés dans le tableau IV où l'Indométacine est utilisée comme produit de référence : […]

## C=C(C=O)C1CCC(C)C1C=O (stereo not drawn) [Ex. 4, α-(2-formyl-3-méthyl-cyclopentyl)-acrylaldéhyde]
[1]
  EC50: 10 µg/mL (≈ 0.0602 mM)
[2]
  EC50: 13 µg/mL (≈ 0.0782 mM)
[3]
  MIC: 2500 µg/mL (≈ 15 mM)
[4]
  MIC: 1500 µg/mL (≈ 9.02 mM)
[5]
  MIC: 1250 µg/mL (≈ 7.52 mM)
[6]
  MIC: 1750 µg/mL (≈ 10.5 mM)
[7]
  MIC: 1000 µg/mL (≈ 6.02 mM)
[8]
  MIC: 1250 µg/mL (≈ 7.52 mM)
[9]
  MIC: 1000 µg/mL (≈ 6.02 mM)
[10]; 1 mg/kg
  Apparition de l'apnée (en secondes): 130 ± 23 secondes
[10]; 10 mg/kg
  Apparition de l'apnée (en secondes): 169 ± 32 secondes
[11]
  MBC: 3000 µg/mL (≈ 18 mM)
[12]
  MBC: 1750 µg/mL (≈ 10.5 mM)
[13]
  MBC: 2000 µg/mL (≈ 12 mM)
[14]
  MBC: 2000 µg/mL (≈ 12 mM)
[15]
  MBC: 1500 µg/mL (≈ 9.02 mM)
[16]
  MBC: 2500 µg/mL (≈ 15 mM)
[17]
  MBC: 1750 µg/mL (≈ 10.5 mM)
[18]
  MBC: 1250 µg/mL (≈ 7.52 mM)
[19]; 1 mg/kg
  Dyspnée temps d'apparition (secondes): 120 ± 52 secondes
[19]; 10 mg/kg
  Dyspnée temps d'apparition (secondes): 130 ± 54 secondes
[20]; inhaled or intranasal, aerosol, read-out: DL-50 aérosol
  LD50: 22 ± 3 mg/kg
[20]; ip, i.p., read-out: DL-50 i.p.
  LD50: 18 ± 3 mg/kg
[20]; iv, i.v., read-out: DL-50 i.v.
  LD50: 20 ± 3 mg/kg
[20]; po, p.o., read-out: DL-50 p.o.
  LD50: 282 ± 3 mg/kg
[20]; sc, s.c., read-out: DL-50 s.c.
  LD50: > 1000 mg/kg
[21]; 5 µg/ml
  amplitude des contractions: 91 ± 37
[21]; 10 µg/ml
  amplitude des contractions: 52 ± 16
[21]; Cavia porcellus, 2 min, 5 µg/ml, read-out: variation de l'amplitude par rapport aux animaux témoins
  inhibition at 5 µg/mL: 38%
[21]; Cavia porcellus, 2 min, 10 µg/ml, read-out: variation de l'amplitude par rapport aux animaux témoins
  inhibition at 10 µg/mL: 65%
[22]; dose 10 µg per rat
  inhibition par rapport aux témoins: 26%
[22]; dose 50 µg per rat
  inhibition par rapport aux témoins: 25%
[22]; dose 200 µg per rat
  inhibition par rapport aux témoins: 41%
